Test results taken from patent US11771779B2, “Non-metallic magnetic resonance contrast agent” (HADASIT MEDICAL RESEARCH SERVICES & DEVELOPMENT LIMITED, priority 2018, dated 2023).
Where two headings read alike, the source gives them in different places.

How the values were obtained:
[1] = Source text: The dissolution process is detailed in the results section. […] Unless otherwise stated, the dissolved hyperpolarized solution was directly injected to a screw cup 10 mm NMR tube in a 5.8T NMR spectrometer via a PTFE line of about 2.4 m length with 3 s of He(g) chase. This line was wrapped with a heating tape (MRC, Holon, Israel) that enabled control over the temperature of the dissolution medium arriving to the NMR tube directly or to a collection tube in the fringe field of the spectrometer. ^15N-Nuclear Magnetic Resonance (NMR) spectra were continuously recorded immediately at the start of the dissolution process. […] In the experiments in body fluids and in experiments in which the hyperpolarized solution was first cooled to temperatures below room temperature, the dissolution media was first collected in a conical tube placed in the spectrometer's fringe field, and then was injected by syringe via a PEEK line to the NMR tube that was placed in the magnet.
For heating this hyperpolarized solution prior to arrival to the NMR tube, the PTFE line leading the hyperpolarized solution out of the spin polarization device was wrapped with a heating tape connected to a temperature controller (MRC, Holon, Israel). In this way, hyperpolarized solutions at temperatures higher than 26° C. could be obtained. For cooling the hyperpolarized solution, the heating tape was not turned on and the dissolution medium was mixed with 0 to 4 mL of D2O at 2° C. in a collection tube placed in ice-water bath in the fringe field of the magnet, prior to injection.
^15N-NMR spectroscopy was performed in a 5.8T NMR spectrometer (RS2D, Mundolsheim, France), using a 10 mm broad-band NMR probe. The chemical shift scale of the spectra presented herein was calibrated based on a separate measurement of a [^15N2]urea standard sample (4M in H2O:D2O 80:20), carried out prior to hyperpolarized ^15N acquisitions, calibrating the [^15N2]urea signal to −306 ppm (relative to nitromethane). For enhancement factor calculation, the spectra were collected with a high flip angle of […] and a repetition time of 2 s. For T1 calculation, the spectra were acquired with a low flip angle of […] and a longer repetition time of 5-10 s.
The temperature in the NMR tube was continuously monitored using an NMR compatible temperature probe (Osensa, Burnaby, BC, Canada).
Determination of the T1 of the hyperpolarized sites was performed by curve fitting of the signal decay to the following equation: S(t)=S0·e^−t/T^1·(cos θ)^t/TR, in which TR, the time between excitations, and θ, the nutation angle of excitation, are known. Curve fitting was performed using Matlab (Mathworks, Natick, Mass., USA).

[2] = T1 of hyperpolarized ^15N sites bound to labile protons upon dissolution in H2O and D2O, 5.8 T; assay type: physicochemical; conditions: for T1 upon dissolution in D2O / T1 upon dissolution in H2O: ≈37° C. (35-40° C.), 5.8 T, n=2; for T1 prolongation D2O versus H2O: deuteration of labile protons; for decrease in polarization during 1 min transfer and administration: entire process at physiological temperatures
[3] = in vivo; cited from earlier work
[4] = Temperature dependence of T1 of hyperpolarized [^15N2]urea in D2O; assay type: physicochemical; design: T1 Average ± SD: unit not given here
Procedure: The experiment shown in FIG. 9B clarified the importance of maximizing the T1 of [^15N2]urea for optimal storage of the polarization, in order to expand the time scale in which the hyperpolarized signal from a single dose can be observed in vivo. As for storage there are no limitation to physiological temperatures, the effect of temperature on the T1 of [^15N2]urea was measured. Given the impressive signal afforded by the dDNP process and its long lifetime, it was possible to measure the T1 of the ^15N sites of urea for a range of temperatures with a single sample that was slowly heated or cooled while the temperature was continuously monitored with an NMR compatible temperature probe (FIG. 10A, top). In order to determine the temperature dependent T1, the decay data were retrospectively binned to consecutive 10° C. segments (FIG. 10A, alternating shading indicates different 10° C. segments) and the T for each temperature segment was determined (FIG. 10B, inset).
The hyperpolarized decay acquisitions were carried out with 3-10° excitation angle and 5-20 s repetition time. There was no significant difference in the T determined with different acquisition parameters.
Individual measurements are shown. Each column represents a single hyperpolarized decay, obtained with the same flip angle and repetition time. Using an online measurement of the temperature inside the NMR tube, we could differentiate different temperature regimes within a single decay and thus assess the effect of temperature on T1. T1 values were determined by fitting the equation describing the mono-exponential decay of a hyperpolarized signal: S(t)=S0·e−t/T1·(cos θ)t/TR.
The angle of excitation was determined by calibration of the 90o excitation on a ^15N labeled standard. The error for each individual measurement represents the 95% confidence interval of the curve fit.
The temperature gradient was formed by adding a solution at a temperature different than the spectrometer temperature so that throughout the acquisition the sample slowly cooled/warmed to the spectrometer temperature. […] Variability in the determined T1 values may be due to slight variations in the effective angle of excitation and/or the amount of trace protons present in different samples; indeed when different temperature segments are compared within the same hyperpolarized decay, (i.e. for the same sample on the same day), the dependence of T1 on the temperature can be even more clearly seen. The average and standard deviation of all measurements in the same temperature regime are shown in the column on the right.

[5] = Liquid state polarization and buildup of [^15N2]urea by dDNP; assay type: physicochemical
Procedure: The temperature in the NMR tube was continuously monitored using an NMR compatible temperature probe (Osensa, Burnaby, BC, Canada). […] Curve fitting was performed using Matlab (Mathworks, Natick, Mass., USA).

Remark: listed apart in the source

Which results are given for `O=[15N][O-].[Na+]` [[^15N]nitrite, sodium [^15N]nitrite]?
T1 ([1]; D2O, n=2): 14.8 ± 0.6 s; T1 ([1]; H2O, n=2): 13.6 ± 0.5 s; T1 ([1]; same sample, D2O (co-polarized nitrate and nitrite)): 14 s

For `O=C1CCC(=O)[15NH]1` [[^15N]succinimide], which “T1 upon dissolution in D2O” value [2] is on record?
The value was 215 ± 2 s.

And the “T1 upon dissolution in H2O” value [2]?
Its value is 45 ± 3 s.

What about the “T1 prolongation D2O versus H2O” value [2] of the same compound?
Its value is 4.8 fold.

For `O=NO` [Nitrite (NO2), Nitrite], which “half-life in the circulation” value [3] is on record?
Its value is 0.333 h.

With `O=[N+]([O-])O` [nitrate (NO3—), nitrate] as the compound, how does the “half-life in the circulation” value [3] read?
Its value is 5 to 6 h.

Which “decrease in polarization during 1 min transfer and administration” value [2] does the source give for `N[13C](N)=O` [carbon-13 labeled urea, reference compound] here?
Its value is “≈ 80%”.

Which “T1 upon dissolution in D2O” value [2] does the source give for `Cl.N[C@@H](CCCNC(=[15NH])[15NH2])C(=O)O` [[guanido-^15N2]arginine, L-[guanido-^15N2]arginine:HCl] here?
Its value is 44 ± 1 s.

What about the “T1 upon dissolution in H2O” value [2] of the same compound?
The value was 6.6 ± 0.3 s.

What about the “T1 prolongation D2O versus H2O” value [2] of the same compound?
Its value is 6.7 fold.

What does the source list for `[15NH2]C([15NH2])=O` [[^15N2]urea]?
T1 upon dissolution in D2O [2]: 200 ± 20 s; T1 upon dissolution in H2O [2]: 33 ± 5 s; T1 prolongation D2O versus H2O [2]: 6.1 fold; decrease in polarization during 1 min transfer and administration [2]: ≈ 25%; T1 Average ± SD ([4]; 15-25° C., n = 3): 146 ± 23; T1 Average ± SD ([4]; 25-35° C., n = 4): 191 ± 33; T1 Average ± SD ([4]; 35-45° C., n = 6): 226 ± 38; T1 Average ± SD ([4]; 45-55° C., n = 4): 308 ± 34; T1 Average ± SD ([4]; 55-65° C., n = 4): 351 ± 40; T1 Average ± SD ([4]; 65-75° C., n = 3): 382 ± 48; T1 ([4]; #1, θ 10°, TR 5 s, 35-45° C.): 228 ± 4; T1 ([4]; #2, θ 3°, TR 10 s, 15-25° C., ± 95% CI of fit): 155 ± 3; T1 ([4]; #2, θ 3°, TR 10 s, 25-35° C.): 196 ± 8; T1 ([4]; #3, θ 10°, TR 10 s, 25-35° C.): 209 ± 2; T1 ([4]; #3, θ 10°, TR 10 s, 35-45° C.): 266 ± 4; T1 ([4]; #3, θ 10°, TR 10 s, 45-55° C.): 355 ± 8; T1 ([4]; #3, θ 10°, TR 10 s, 55-65° C.): 382 ± 17; T1 ([4]; #4, θ 10°, TR 10 s, 25-35° C.): 216 ± 2; T1 ([4]; #4, θ 10°, TR 10 s, 35-45° C.): 272 ± 3; T1 ([4]; #4, θ 10°, TR 10 s, 45-55° C.): 340 ± 5; T1 ([4]; #4, θ 10°, TR 10 s, 55-65° C.): 386 ± 12; T1 ([4]; #4, θ 10°, TR 10 s, 65-75° C.): 416 ± 23; T1 ([4]; #5, θ 10°, TR 10 s, 35-45° C.): 216 ± 5; T1 ([4]; #5, θ 10°, TR 10 s, 45-55° C.): 273 ± 4; T1 ([4]; #5, θ 10°, TR 10 s, 55-65° C.): 305 ± 14; T1 ([4]; #5, θ 10°, TR 10 s, 65-75° C.): 327 ± 16; T1 ([4]; #6, θ 10°, TR 10 s, 15-25° C.): 112 ± 6; T1 ([4]; #6, θ 10°, TR 10 s, 25-35° C.): 143 ± 1; T1 ([4]; #7, θ 10°, TR 15 s, 35-45° C.): 198 ± 2; T1 ([4]; #8, θ 10°, TR 15 s, 35-45° C.): 176 ± 5; T1 ([4]; #9, θ 5°, TR 20 s, 45-55° C.): 284 ± 6; T1 ([4]; #9, θ 5°, TR 20 s, 55-65° C.): 332 ± 11; T1 ([4]; #9, θ 5°, TR 20 s, 65-75° C.): 404 ± 41; T1 ([4]; #10, θ 10°, TR 10 s, 15-25° C.): 163 ± 20; T1 ([4]; D2O, 65-75° C. (above 65° C.)): more than 6 min; T1 ([4]; deuterated water, physiological temperatures): > 3 min; polarization buildup time ([5]; R^2=0.93): 2.3 ± 1.2 h; maximum polarization ([5]; liquid state polarization after varying irradiation times, 1.4-1.5 K): 5.1±1.6%; T1 in whole blood (2nd injection): 12.0 ± 0.2 s; T1 in whole blood (3rd injection): 12.9 ± 0.6 s; T1 in whole blood (37° C.): 10 s; T1 in whole human blood (first decay curve, D2O:whole blood 1:10, 95% CI): 9.8 ± 0.2 s
